{"source": "paper PMC5885780", "about": "“Sub-nanosecond tryptophan radical deprotonation mediated by a protein-bound water cluster in class II DNA photolyases” (Chemical Science, 2017)", "assay_in_all_cases": "UV/vis and transient absorption of co-purified protein-bound FAD", "assay_type_in_all_cases": "binding", "details_in_all_cases": "pH 8.0, 10 mM Tris-HCl, 100 mM NaCl, 10% glycerol, 7 °C; oxidized FAD; free FAD removed by size-exclusion column", "key": {"[1]": {"molecular_target": "T1, MmCPDII (class II CPD photolyase) (Methanosarcina mazei, UniProt Q8PYK9, W388F)", "T1 construct": "gene MM_0852; full-length from pET-28a-MmCPDII, E. coli BL21-Gold(DE3), NiNTA and SEC"}, "[2]": {"molecular_target": "T2, MmCPDII (class II CPD photolyase) (Methanosarcina mazei, UniProt Q8PYK9, Y345F)", "T2 construct": "gene MM_0852; full-length from pET-28a-MmCPDII, E. coli BL21-Gold(DE3), NiNTA and SEC"}, "[3]": {"molecular_target": "T3, MmCPDII (class II CPD photolyase) (Methanosarcina mazei, UniProt Q8PYK9)", "T3 construct": "gene MM_0852; full-length from pET-28a-MmCPDII, E. coli BL21-Gold(DE3), NiNTA and SEC"}, "[4]": {"molecular_target": "T4, MmCPDII (class II CPD photolyase) (Methanosarcina mazei, UniProt Q8PYK9, E387Q)", "T4 construct": "gene MM_0852; full-length from pET-28a-MmCPDII, E. coli BL21-Gold(DE3), NiNTA and SEC"}}, "data": [{"smiles": "Cc1cc2nc3c(=O)[nH]c(=O)nc-3n(C[C@H](O)[C@H](O)[C@H](O)COP(=O)(O)OP(=O)(O)OC[C@H]3O[C@@H](n4cnc5c(N)ncnc54)[C@H](O)[C@@H]3O)c2cc1C", "note": "[FAD]", "values": [{"measurement": "UV/vis and transient absorption of co-purified protein-bound FAD", "setting": "[1]", "result": "Isolated MmCPDII photolyase (WT, as well as all mutants studied here) contains a fully oxidized FAD"}, {"measurement": "UV/vis and transient absorption of co-purified protein-bound FAD", "setting": "[2]", "result": "Isolated MmCPDII photolyase (WT, as well as all mutants studied here) contains a fully oxidized FAD"}, {"measurement": "UV/vis and transient absorption of co-purified protein-bound FAD", "setting": "[3]", "result": "Isolated MmCPDII photolyase (WT, as well as all mutants studied here) contains a fully oxidized FAD"}, {"measurement": "UV/vis and transient absorption of co-purified protein-bound FAD", "setting": "[4]", "result": "Isolated MmCPDII photolyase (WT, as well as all mutants studied here) contains a fully oxidized FAD"}]}]}
